In data set [1] the test system is bovine viral diarrhea virus (BVDV) strain NADL. The note with it: well known from the literature; cited from earlier work.
For data set [2] the test system is unchanged. Nature of the data set: BVDV CPE-inhibition assay in MDBK cells. The format is cell-based. The note with it: for EC50: read-out: EC50. As to the method: The antiviral evaluation of selected BIT compounds against BVDV was outsourced to Southern Research Institute (SRI), Fredrick Md. USA. A simple cytoprotection format is used in which the antiviral efficacy of the compounds is assessed by their ability to reduce the cytopathic effect of BVDV infection in Madin-Darby bovine kidney cells (Buckwold et al., 2003)
(§1) A virus-induced cytopathogenic effects (CPE)-inhibition assay procedure was employed to evaluate compounds for antiviral activity against bovine viral diarrhea virus (BVDV) strain NADL, in Madin-Darby bovine kidney (MDBK) cells passaged in T-75 flasks (1, 2). Antiviral assays were designed to test six half-log concentrations of each compound in triplicate against the challenge virus. Cell controls (CC) containing medium alone, virus-infected cell controls (VC) containing medium and virus, drug cytotoxicity controls containing medium and each drug concentration, reagent controls containing culture medium only (no cells), and drug colorimetric controls containing drug and medium (no cells) are run simultaneously with the test samples. Human interferon-α 2b was used as a positive control compound. On the day preceding the assay, the cells were trypsinized, pelleted, counted and resuspended at 1×10^4/well in tissue culture medium in 96-well flat bottom tissue culture plates in a volume of 100 μl per well. One day following plating of cells, the wells were washed and the medium was replaced with complete medium (2% serum) containing various concentrations of test compound diluted in medium in a half-log series. A pre-titered aliquot of virus was removed from the freezer (−80° C.) just before each experiment. The virus was diluted into tissue culture medium such that the amount of virus added to each well would give complete cell killing at 6-7 days post-infection. The plates were incubated at 37° C. in a humidified atmosphere containing 5% CO2 until maximum CPE is observed in the untreated virus control cultures (˜day 7) Inhibition of CPE by the compound was determined using Cell Titer 96 (Promega). A colorimetric method for determining the number of viable cells was used. A computer program was utilized to calculate the percent of CPE reduction of the virus-infected wells and the percentage cell viability of uninfected drug control wells. […] A therapeutic (selectivity) index (TI50) for each active compound was determined by dividing the TC50 by the IC50.
(§2) Drug cytotoxicity was measured separately in uninfected cells. Eleven BIT compounds were tested in the first experiment in which the compounds were added to the cells just prior to infection and were maintained throughout the entire experiment. Two of them, BIT225 and BIT314 returned sub-micromolar IC50 values (see Table 2 below).

A further data set concerns the target T1, GBV-B p13 ion channel (Hepatitis GB virus B, UniProt Q69422).
T1 construct: a synthetic peptide corresponding to the two C-terminal transmembrane helices of p13 (which share the greatest homology to p7); host or cells: chemically synthesised peptide
The note with it: synthetic peptide of two C-terminal transmembrane helices of p13; Premkumar et al., 2006; cited from earlier work.

The test system of data set [3] is Madin-Darby bovine kidney (MDBK) cells. Kind of data set: Drug cytotoxicity in uninfected MDBK cells. The class given is cell-based. The note with it: uninfected MDBK cells.
Description: as §1, §2

A further data set relates to GBV-B. Nature of the data set: GBV-B replication in primary marmoset hepatocytes (viral RNA by real-time RT-PCR). The class given is cell-based. From the text: GBV-B is the most closely related flavivirus to HCV, sharing 27-33% nucleotide sequence identity and 28% amino acid similarity over the complete polypeptide sequence. This virus represents an excellent surrogate system for HCV because it infects small New World primates and replicates efficiently in vitro in primary marmoset hepatocyte (PMH) cultures. The GBV-B homologue of HCV p7 is called p13. It is shown herein that a synthetic peptide corresponding to the two C-terminal transmembrane helices of p13 (which share the greatest homology to p7) forms a cation selective ion channel that, like the p7 channel, is blocked by amantadine (Premkumar et al., 2006). […] These observations confirm that the two homologous channels share similar, but not identical, structural features.
Selected BIT compounds—identified by bacterial assay screening for inhibitors of HCV p7—were tested for ability to inhibit GBV-B replication in primary marmoset hepatocytes (see FIG. 1). The hepatocytes were inoculated 3-days after plating with 10× TCID50 of GBV-B positive marmoset serum. […] was adsorbed for two hours, and then the cells were washed three times and cultured for two days in fresh serum-free medium (SFM) supplemented with hormones and growth factors. Virus released to the culture supernatant was measured as viral RNA copy number, as determined by real-time RT-PCR. […]

In data set [4] the target is T2, HCV p7 ion channel protein (Hepatitis C virus genotype 1a, UniProt P27958).
T2 construct: codons were optimised for expression of the p7 protein in E. coli; expressed in transfected cells; host or cells: E. coli carrying plasmid pPLp7 (pPL451 backbone, temperature-inducible)
T2 sequence (P27958 747-809): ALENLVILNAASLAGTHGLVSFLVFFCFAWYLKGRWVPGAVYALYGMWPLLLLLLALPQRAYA
Kind of data set: Bacterial bioassay: growth of E. coli expressing HCV p7. The class given is cell-based. More on the design: scale not given here. The note with it: cumulative averaged scores; result above zero indicates potential anti-viral activity. From the text: The bacterial bioassay method used in the present example to test the anti-viral activity of the compounds against different viral targets was described in detail in PCT/2004/000866, incorporated in its entirety herein by reference. This assay is used in conjunction with the GBV-B and BVDV assays described below, to ensure that all active compounds are identified, some of which are active in one or the other of the assays, while some compounds may be active in both assays.
Briefly, the bacterial bio-assay for screening potential anti-HCV compounds is based on the HCV p7 ion channel protein. p7 is a small membrane protein encoded by HCV, which has a functional activity supporting viral growth and/or replication.
The p7-encoding synthetic cDNA fragment cDp7.coli, in which codons were optimised for expression of the p7 protein in E. coli, was cloned into the expression plasmid pPL451, creating the vector pPLp7, in which p7 expression is temperature inducible, as described in detail in PCT/2004/000866. Inhibition of the growth of E. coli cells expressing p7 at 37° C. was observed as an indicator of p7 ion channel function dissipating the normal Na+gradient maintained by the bacterial cells. Halos of growth around a particular compound application site indicate that the compound has inhibited expression of the p7 ion channel activity that prevents growth in the absence of the compound.
The positive controls were used in this assay to ensure that the assay was working rather than for comparison of relative activities of the compounds.

Structures are written as SMILES. “Also recorded” adds a separate entry of the source. Like-named read-outs stand apart in the source and are kept apart here.

T1 sequence (Q69422 670-732): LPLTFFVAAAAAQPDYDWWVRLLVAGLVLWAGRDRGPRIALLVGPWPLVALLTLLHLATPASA

For `NC(=O)c1ncn([C@@H]2O[C@H](CO)[C@@H](O)[C@H]2O)n1` [Ribavirin, reference compound], the “activity against BVDV on its own” value in data set [1] is listed as “very little activity”. Besides, the antiviral activity entry in data set [2] (1.25 μg/ml Ribavirin alone) is “no antiviral activity”. In addition, in data set [2] (alone, range up to 20 μg/ml), the “Antiviral activity on its own” value is “only very little antiviral activity was detected; also recorded: no antiviral activity”.
For `NC12CC3CC(CC(C3)C1)C2` [amantadine], the “effect on p13 ion channel” value at GBV-B p13 ion channel is recorded as “blocked”.
Turning to `NC(N)=NC(=O)c1nc(Cl)c(N2CCCCCC2)nc1N` [HMA], on GBV-B p13 ion channel, the “effect on p13 ion channel” value is “does not inhibit”.
For `Cn1cc(-c2cccc3cc(C(=O)NC(=N)N)ccc23)cn1` [BIT225, 5-(1-methylpyrazol-4-yl)2-naphthoylguanidine], the half-maximal inhibitory concentration (IC50) was found to be 530 nM in data set [2] (BVDV in MDBK cells, compound added just prior to infection and maintained, N/A = not achieved, read-out: IC50); 1270 nM in data set [2] (Bovine viral diarrhea virus isolates and strains, MDBK, Table 2a, read-out: BVDV IC50); 330 nM in data set [2] (Bovine viral diarrhea virus isolates and strains, MDBK, subsequent repeat assay, read-out: IC50). Moreover, the EC50 was 314 nM in data set [2] (Bovine viral diarrhea virus isolates and strains, MDBK, drug tested individually against BVDV); 92 nM in data set [2] (Bovine viral diarrhea virus isolates and strains, MDBK, in the presence of 5 IU/ml IFNα, Hill slope constrained); 149 nM in data set [2] (Bovine viral diarrhea virus isolates and strains, MDBK, in the presence of 5 IU/ml IFNα, variable Hill slope); 71 nM in data set [2] (Bovine viral diarrhea virus isolates and strains, MDBK, in the presence of 10 IU/ml IFNα, Hill slope constrained); 125 nM in data set [2] (Bovine viral diarrhea virus isolates and strains, MDBK, in the presence of 10 IU/ml IFNα, variable Hill slope). Moreover, the inhibition at 0.031 µM in data set [2] (Bovine viral diarrhea virus isolates and strains, MDBK, 31 nM BIT225 alone) is approximately 5%. Moreover, the “IC50 values (in words)” value in data set [2] (first experiment, Table 2) is “sub-micromolar”. The same molecule gave a TC50 in data set [3] of 11600 nM. The “Virus in the culture supernatant (viral RNA copy number)” value in the data set on GBV-B (cells pre-treated with 20 μM) is “no virus was detected”. In addition, the “Efficacy when compounds were added post-inoculation” value with GBV-B (post-treatment versus pre-treatment) was “reduced somewhat”. The “Average Bacterial Assay Score HCV p7” value in data set [4] came out at 1.20.

Values taken from patent publication US20100254942A1, “HEPATITIS C ANTIVIRAL COMPOSITIONS AND METHODS” (BIOTRON LIMITED, priority 2007, published 2010).
